For orientation: MIC means the lowest concentration found to suppress growth. The low end stands for inhibition by little substance, the high end for a need for much substance.

Our source for the MIC values is DBAASP.

What all share (assay): ≥ marks a high value that may be exact or a test limit, other limits are often not marked, values filed in µg/mL are converted to µM
For assay [1], the system named is Bacillus subtilis ATCC 6633.
The test system of assay [2] is Candida albicans ATCC 36232.
The test system of assay [3] is Corynebacterium diphtheriae ATCC 8024.
Assay [4] concerns Escherichia coli ATCC 2592.
The test system of assay [5] is Micrococcus luteus ATCC 9341.
For assay [6], the system named is Pseudomonas aeruginosa ATCC 9027.
Assay [7] concerns Shigella flexneri ATCC 203.
Assay [8] relates to Staphylococcus aureus ATCC 6538.
In the next assay the test system is Staphylococcus aureus.
Assay [9] concerns Staphylococcus epidermidis ATCC 12228.
The test system of assay [10] is Bacillus subtilis ATCC 23857.
In assay [11] the test system is Candida albicans ATCC 10231.
In assay [12] the test system is Escherichia coli ATCC 25922.
The test system of assay [13] is Klebsiella aerogenes ATCC 13048.
Assay [14] concerns Staphylococcus aureus ATCC 29737.
In assay [15] the test system is Staphylococcus epidermidis ATCC 12222.
The subject of assay [16] is Streptococcus gordonii ATCC 10558.
In assay [17] the test system is Streptococcus gordonii DL1.
For assay [18], the system named is Streptococcus mutans ATCC 104495.
The subject of assay [19] is Streptococcus mutans ATCC 25175.
The next assay has as its system Streptococcus mutans T8.
The subject of assay [20] is Streptococcus mutans UA140.
Assay [21] relates to Streptococcus mutans UA159.
In assay [22] the test system is Streptococcus mutans comD.
Assay [23] deals with Streptococcus salivarius K12.
Assay [24] has as its system Streptococcus sanguinis ATCC 10556.
The subject of assay [25] is Streptococcus sanguinis NY101.
Assay [26] concerns Candida albicans ATCC 2002.
In assay [27] the test system is Pseudomonas fluorescens ATCC 13525.
For assay [28], the system named is Staphylococcus aureus ATCC 2592.
Assay [29] concerns Aspergillus fumigatus KCTC 4165.
In assay [30] the test system is Bacillus subtilis KCTC 1918.
Assay [31] concerns Candida albicans TIMM 1768.
In assay [32] the test system is Escherichia coli KCTC 1682.
Assay [33] concerns Pseudomonas aeruginosa KCTC 1637.
Assay [34] relates to Salmonella typhimurium KCTC 1926.
Assay [35] has as its system Staphylococcus aureus KCTC 1621.
Assay [36] concerns Streptococcus pyogenes KCTC 3096.

The structures appear in SMILES notation. In brackets after ≈: the same amount, converted by molar mass. Some results are limits rather than exact numbers.

For `CC[C@H](C)[C@H](NC(=O)[C@H](CC(=O)O)NC(=O)[C@H](CS)NC(=O)[C@@H](NC(=O)[C@@H](N)C(C)C)[C@@H](C)O)C(=O)N[C@@H](CC(C)C)C(=O)N[C@@H](CO)C(=O)N[C@H](C(=O)N[C@@H](CCC(=O)O)C(=O)N[C@@H](C)C(=O)N[C@@H](CCCCN)C(=O)NCC(=O)N[C@H](C(=O)N[C@@H](CCCCN)C(=O)N[C@@H](CC(C)C)C(N)=O)C(C)C)C(C)C` [VTCDILSVEAKGVKL], the MIC is not below 63.5 µM in assay [1]; not below 63.5 µM in assay [2]; not below 63.5 µM in assay [3]; not below 63.5 µM in [4]; not below 63.5 µM in assay [5]; more than 63.5 µM in [6]. For the same compound, the MIC in assay [7] is not below 63.5 µM; in assay [8] it was more than 63.5 µM; in the assay on Staphylococcus aureus, more than 63.5 µM; in [9] it was more than 63.5 µM.

As for `CC(C)C[C@H](NC(=O)[C@H](CC(C)C)NC(=O)[C@H](CCCCN)NC(=O)[C@H](CCCCN)NC(=O)[C@H](CC(C)C)NC(=O)[C@H](CC(C)C)NC(=O)[C@H](CCCCN)NC(=O)[C@H](CCCCN)NC(=O)[C@H](CC(C)C)NC(=O)[C@@H](N)CC(C)C)C(=O)N[C@@H](CCCCN)C(=O)N[C@@H](CCCCN)C(N)=O` [LLKKLLKKLLKK], the minimal inhibitory concentration (MIC) is 21.4 µM (≈ 31.3 µg/mL) in assay [10]; 85.3 µM (≈ 125 µg/mL) in assay [11]; more than 341 µM in [12]; not below 341 µM in assay [13]; 43 µM (≈ 63 µg/mL) in [6]; not below 341 µM in [14]. For the same compound, the MIC in assay [15] was not below 43 µM.

Turning to `CC(C)C[C@H](NC(=O)[C@H](C)NC(=O)[C@H](CCC(N)=O)NC(=O)[C@@H](NC(=O)[C@H](Cc1ccccc1)NC(=O)[C@H](CO)NC(=O)[C@H](CCCN=C(N)N)NC(=O)[C@H](CC(N)=O)NC(=O)[C@H](Cc1ccccc1)NC(=O)[C@H](CC(C)C)NC(=O)[C@H](CCCN=C(N)N)NC(=O)[C@H](Cc1ccccc1)NC(=O)[C@H](Cc1ccccc1)NC(=O)[C@@H](N)[C@@H](C)O)[C@@H](C)O)C(=O)NCC(=O)N[C@@H](CCCCN)C(=O)O` [TFFRLFNRSFTQALGK], the MIC in assay [16] was not below 64 µM; in assay [17], not below 60 µM; in [18], not below 64 µM; in assay [19], not below 60 µM; against Streptococcus mutans T8, not below 60 µM; in [20] it was not below 64 µM. Also, the MIC in [21] is not below 60 µM; in assay [22], not below 60 µM; in assay [23], not below 64 µM; in assay [24], not below 64 µM; in [25], not below 60 µM.

Regarding `CC[C@H](C)[C@H](NC(=O)[C@H](C)NC(=O)[C@@H](NC(=O)[C@@H]1CCCN1C(=O)[C@H](CC(C)C)NC(=O)[C@@H](NC(=O)[C@H](CC(N)=O)NC(=O)[C@H](C)NC(=O)[C@H](C)NC(=O)[C@@H](NC(=O)[C@H](CCCCN)NC(=O)[C@H](CC(C)C)NC(=O)[C@H](C)NC(=O)[C@@H](NC(=O)CNC(=O)[C@H](Cc1ccccc1)NC(=O)[C@@H](N)Cc1ccccc1)[C@@H](C)O)[C@@H](C)CC)C(C)C)[C@@H](C)O)C(=O)N[C@H]1CSSC[C@@H](C(=O)O)NC(=O)[C@H](CCCCN)NC(=O)[C@H](CCCCN)NC(=O)[C@H](CC(C)C)NC(=O)[C@H]([C@@H](C)CC)NC(=O)[C@H](CCCCN)NC1=O` [FFGTALKIAANVLPTAICKILKKC], the MIC was determined as 2.34 µM (≈ 6 µg/mL) in assay [1], 19.5 µM (≈ 50 µg/mL) in assay [26], 31.2 µM (≈ 79.9 µg/mL) in assay [27] and 3.9 µM (≈ 9.99 µg/mL) in assay [28].

Regarding `CC[C@H](C)[C@H](NC(=O)[C@H](CCCCN)NC(=O)[C@H](CCCCN)NC(=O)[C@H](CC(C)C)NC(=O)[C@H](CCCCN)NC(=O)[C@H](CCC(=O)O)NC(=O)CN)C(=O)NCC(=O)N[C@@H](CCC(N)=O)C(=O)N[C@@H](CCCCN)C(=O)N[C@H](C(=O)N[C@@H](CCCCN)C(=O)N[C@@H](CCCCN)C(=O)N[C@@H](Cc1ccccc1)C(=O)N[C@@H](Cc1ccccc1)C(=O)N[C@@H](CCC(N)=O)C(=O)N[C@@H](CCCCN)C(=O)N[C@@H](CC(C)C)C(=O)O)[C@@H](C)CC` [GEKLKKIGQKIKKFFQKL], the minimum inhibitory concentration (MIC) was 25 µM (≈ 54 µg/mL) in assay [29]; 25 µM (≈ 54 µg/mL) in [30]; not below 50 µM in [31]; 25 µM (≈ 54 µg/mL) in [32]; 6.25 µM (≈ 13.5 µg/mL) in assay [33]; 12.5 µM (≈ 27 µg/mL) in [34]. Moreover, the MIC in assay [35] and in [36] was 25 µM (≈ 54 µg/mL) each time.
